Experiments:
[1] = molecular target: Protein-tyrosine kinase 2-beta (Homo sapiens) (UniProt Q14289); test: Inhibition of wild-type human full length PYK2 (M1 to E967 residues) expressed in bacterial expression system assessed as residual activity at 1 uM by Kinomescan method relative to control
[2] = molecular target: Tyrosine-protein kinase Yes (Homo sapiens) (UniProt P07947); test: Inhibition of wild-type human partial length YES (T257 to L543 residues) expressed in bacterial expression system assessed as residual activity at 1 uM by Kinomescan method relative to control
[3] = molecular target: Tyrosine-protein kinase FRK (Homo sapiens) (UniProt P42685); test: Inhibition of wild-type human partial length FRK (A215 to F503 residues) expressed in bacterial expression system assessed as residual activity at 1 uM by Kinomescan method relative to control
Chain of Tyrosine-protein kinase FRK (Homo sapiens) (P42685 whole entry, the tested form may be a part): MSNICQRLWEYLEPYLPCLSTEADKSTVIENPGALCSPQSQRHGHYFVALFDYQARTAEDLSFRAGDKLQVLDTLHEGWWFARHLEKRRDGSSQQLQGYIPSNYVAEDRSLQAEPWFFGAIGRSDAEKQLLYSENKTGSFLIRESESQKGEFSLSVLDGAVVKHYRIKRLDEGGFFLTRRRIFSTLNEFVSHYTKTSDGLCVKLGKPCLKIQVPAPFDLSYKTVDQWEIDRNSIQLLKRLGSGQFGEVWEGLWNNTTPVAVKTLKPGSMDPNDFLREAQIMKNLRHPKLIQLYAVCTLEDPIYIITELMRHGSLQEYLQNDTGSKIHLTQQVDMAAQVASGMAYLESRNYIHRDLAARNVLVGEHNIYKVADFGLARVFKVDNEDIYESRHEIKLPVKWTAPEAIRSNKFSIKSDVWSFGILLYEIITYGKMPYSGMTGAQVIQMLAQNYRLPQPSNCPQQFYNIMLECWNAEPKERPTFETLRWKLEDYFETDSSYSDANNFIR

[4] = molecular target: Lymphokine-activated killer T-cell-originated protein kinase (Homo sapiens) (UniProt Q96KB5); test: Inhibition of PBK (unknown origin) assessed as residual activity at 1 uM by Kinomescan method relative to control
Chain of Lymphokine-activated killer T-cell-originated protein kinase (Homo sapiens) (Q96KB5 whole entry, the tested form may be a part): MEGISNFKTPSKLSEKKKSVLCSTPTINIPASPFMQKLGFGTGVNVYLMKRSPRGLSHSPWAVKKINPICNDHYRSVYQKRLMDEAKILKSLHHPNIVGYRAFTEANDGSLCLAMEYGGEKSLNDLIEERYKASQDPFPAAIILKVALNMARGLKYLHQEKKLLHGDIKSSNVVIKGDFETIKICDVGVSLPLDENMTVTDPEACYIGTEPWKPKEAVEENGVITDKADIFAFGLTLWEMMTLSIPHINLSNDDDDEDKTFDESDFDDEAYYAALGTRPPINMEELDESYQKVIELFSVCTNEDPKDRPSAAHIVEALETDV

[5] = molecular target: TGF-beta receptor type-1 (Homo sapiens) (UniProt P36897); test: Inhibition of wild-type human partial length TGFBR1 (D179 to M503 residues) expressed in bacterial expression system assessed as residual activity at 1 uM by Kinomescan method relative to control
[6] = molecular target: CDK6/cyclin D3 (Homo sapiens) (UniProt P30281+Q00534); test: Inhibition of wild-type human full length CDK6 (M1 to A326 residues)/cyclin D3 expressed in mammalian expression system assessed as residual activity at 1 uM by Kinomescan method relative to control
[7] = In vivo inhibition of LRRK2 in Han-Wistar rat assessed as reduction in Ser935 phosphorylation in kidney at 10 to 100 mg/kg, po by Western blot analysis; assay type: functional; parameters: scale not given: the % may be the effect or the level left; details: dose 10-100 mg/kg
[8] = molecular target: Serine/threonine-protein kinase 25 (Homo sapiens) (UniProt O00506); test: Inhibition of wild-type human partial length YSK1 (V14 to H295 residues) expressed in bacterial expression system assessed as residual activity at 1 uM by Kinomescan method relative to control
Chain of Serine/threonine-protein kinase 25 (Homo sapiens) (O00506 whole entry, looked up, the tested form may be a part): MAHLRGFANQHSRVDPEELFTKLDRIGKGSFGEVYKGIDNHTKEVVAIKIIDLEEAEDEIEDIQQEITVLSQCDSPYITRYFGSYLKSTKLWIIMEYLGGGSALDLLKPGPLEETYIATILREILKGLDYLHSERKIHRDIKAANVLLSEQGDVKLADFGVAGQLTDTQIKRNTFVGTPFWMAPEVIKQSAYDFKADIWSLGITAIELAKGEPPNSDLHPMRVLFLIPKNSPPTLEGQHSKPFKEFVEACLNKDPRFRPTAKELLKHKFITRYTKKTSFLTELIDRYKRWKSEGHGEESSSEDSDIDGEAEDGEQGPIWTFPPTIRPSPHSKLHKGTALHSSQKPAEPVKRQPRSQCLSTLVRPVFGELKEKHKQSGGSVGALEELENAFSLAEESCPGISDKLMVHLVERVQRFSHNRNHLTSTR

[9] = molecular target: Serine/threonine-protein kinase 32C (Homo sapiens) (UniProt Q86UX6); test: Inhibition of wild-type human partial length YANK3 (M68 to G486 residues) expressed in bacterial expression system assessed as residual activity at 1 uM by Kinomescan method relative to control
[10] = molecular target: Dual specificity mitogen-activated protein kinase kinase 4 (Homo sapiens) (UniProt P45985); test: Inhibition of MKK4 (unknown origin) assessed as residual activity at 1 uM by Kinomescan method relative to control
[11] = molecular target: Vascular endothelial growth factor receptor 1 (Homo sapiens) (UniProt P17948); test: Inhibition of wild-type human partial length FLT1 (R781 to F1239 residues) expressed in bacterial expression system assessed as residual activity at 1 uM by Kinomescan method relative to control
[12] = molecular target: Serine/threonine-protein kinase Chk2 (Homo sapiens) (UniProt O96017); test: Inhibition of CHK2 (unknown origin) assessed as residual activity at 1 uM by Kinomescan method relative to control
[13] = molecular target: Dual specificity tyrosine-phosphorylation-regulated kinase 1A (Homo sapiens) (UniProt Q13627); test: Inhibition of wild-type human partial length DYRK1A (H129 to S509 residues) expressed in mammalian expression system assessed as residual activity at 1 uM by Kinomescan method relative to control
[14] = molecular target: Ephrin type-B receptor 1 (Homo sapiens) (UniProt P54762); test: Inhibition of wild-type human partial length EPHB1 (P589 to T911 residues) expressed in bacterial expression system assessed as residual activity at 1 uM by Kinomescan method relative to control
Chain of Ephrin type-B receptor 1 (Homo sapiens) (P54762 whole entry, the tested form may be a part): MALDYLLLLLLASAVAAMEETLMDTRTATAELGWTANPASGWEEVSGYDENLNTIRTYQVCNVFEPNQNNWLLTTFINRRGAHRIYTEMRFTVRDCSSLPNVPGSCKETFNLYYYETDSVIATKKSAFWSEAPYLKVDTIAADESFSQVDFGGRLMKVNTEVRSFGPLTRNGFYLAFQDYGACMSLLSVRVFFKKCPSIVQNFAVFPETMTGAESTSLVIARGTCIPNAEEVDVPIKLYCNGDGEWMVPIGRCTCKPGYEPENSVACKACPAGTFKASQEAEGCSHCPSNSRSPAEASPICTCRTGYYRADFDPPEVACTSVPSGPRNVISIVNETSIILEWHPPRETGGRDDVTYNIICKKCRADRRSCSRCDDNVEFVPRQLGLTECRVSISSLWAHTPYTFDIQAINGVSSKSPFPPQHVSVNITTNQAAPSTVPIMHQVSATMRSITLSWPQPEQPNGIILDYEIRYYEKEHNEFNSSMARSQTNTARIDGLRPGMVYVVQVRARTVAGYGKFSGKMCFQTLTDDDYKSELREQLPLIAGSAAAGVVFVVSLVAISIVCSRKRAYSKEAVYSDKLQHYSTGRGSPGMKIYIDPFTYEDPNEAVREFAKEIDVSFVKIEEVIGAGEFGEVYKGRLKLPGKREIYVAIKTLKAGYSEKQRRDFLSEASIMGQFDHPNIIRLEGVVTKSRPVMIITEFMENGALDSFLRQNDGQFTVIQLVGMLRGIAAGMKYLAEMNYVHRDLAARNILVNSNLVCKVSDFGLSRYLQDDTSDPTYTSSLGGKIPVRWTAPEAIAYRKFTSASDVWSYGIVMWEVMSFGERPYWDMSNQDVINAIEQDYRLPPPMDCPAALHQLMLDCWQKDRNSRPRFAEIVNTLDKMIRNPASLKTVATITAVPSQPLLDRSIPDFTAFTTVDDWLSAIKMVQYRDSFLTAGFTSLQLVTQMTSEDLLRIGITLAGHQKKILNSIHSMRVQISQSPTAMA

[15] = molecular target: Dual specificity mitogen-activated protein kinase kinase 3 (Homo sapiens) (UniProt P46734); test: Inhibition of wild-type human full length MEK3 (M1 to S318 residues) expressed in mammalian expression system assessed as residual activity at 1 uM by Kinomescan method relative to control
[16] = molecular target: MAP kinase-interacting serine/threonine-protein kinase 2 (Homo sapiens) (UniProt Q9HBH9); test: Inhibition of MNK2 (unknown origin) assessed as residual activity at 1 uM by Kinomescan method relative to control
Chain of MAP kinase-interacting serine/threonine-protein kinase 2 (Homo sapiens) (Q9HBH9 whole entry, looked up): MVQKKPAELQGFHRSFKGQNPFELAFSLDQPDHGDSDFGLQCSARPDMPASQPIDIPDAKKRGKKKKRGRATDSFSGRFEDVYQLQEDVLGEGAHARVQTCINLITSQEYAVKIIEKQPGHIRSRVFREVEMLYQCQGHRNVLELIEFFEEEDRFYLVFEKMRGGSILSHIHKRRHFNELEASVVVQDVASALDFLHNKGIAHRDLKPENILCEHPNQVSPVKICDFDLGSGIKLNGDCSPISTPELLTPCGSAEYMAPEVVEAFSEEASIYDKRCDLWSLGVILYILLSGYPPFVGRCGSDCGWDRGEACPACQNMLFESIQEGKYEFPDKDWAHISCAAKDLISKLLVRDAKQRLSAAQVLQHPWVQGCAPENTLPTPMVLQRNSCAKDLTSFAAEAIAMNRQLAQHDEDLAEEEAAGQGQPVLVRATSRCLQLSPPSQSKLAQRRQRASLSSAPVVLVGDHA

[17] = molecular target: Activated CDC42 kinase 1 (Homo sapiens) (UniProt Q07912); test: Inhibition of ACK1 (unknown origin) assessed as residual activity at 1 uM relative to control
[18] = molecular target: CDK1/Cyclin E (Homo sapiens) (UniProt P06493+P24864); test: Inhibition of CDK1/Cyclin E (unknown origin) assessed as residual activity at 1 uM by Kinomescan method relative to control; assay type: protein-complex assay
[19] = molecular target: Serine/threonine-protein kinase haspin (Homo sapiens) (UniProt Q8TF76); test: Inhibition of wild-type human partial length HASPIN (I452 to K798 residues) expressed in mammalian expression system assessed as residual activity at 1 uM by Kinomescan method relative to control
[20] = molecular target: Serine/threonine-protein kinase SIK2 (Homo sapiens) (UniProt Q9H0K1); test: Inhibition of wild-type human full length SIK2 (M1 to N926 residues) expressed in bacterial expression system assessed as residual activity at 1 uM by Kinomescan method relative to control
[21] = molecular target: PAS domain-containing serine/threonine-protein kinase (Homo sapiens) (UniProt Q96RG2); test: Inhibition of wild-type human partial length PASK (E942 to G1265 residues) expressed in mammalian expression system assessed as residual activity at 1 uM by Kinomescan method relative to control
[22] = molecular target: Ribosomal protein S6 kinase beta-2 (Homo sapiens) (UniProt Q9UBS0); test: Inhibition of RPS6KB2 (unknown origin) assessed as residual activity at 1 uM by Kinomescan method relative to control
[23] = molecular target: Protein-tyrosine kinase 6 (Homo sapiens) (UniProt Q13882); test: Inhibition of wild-type human partial length BRK (L166 to T451 residues) expressed in bacterial expression system assessed as residual activity at 1 uM by Kinomescan method relative to control
Chain of Protein-tyrosine kinase 6 (Homo sapiens) (Q13882 whole entry, looked up, the tested form may be a part): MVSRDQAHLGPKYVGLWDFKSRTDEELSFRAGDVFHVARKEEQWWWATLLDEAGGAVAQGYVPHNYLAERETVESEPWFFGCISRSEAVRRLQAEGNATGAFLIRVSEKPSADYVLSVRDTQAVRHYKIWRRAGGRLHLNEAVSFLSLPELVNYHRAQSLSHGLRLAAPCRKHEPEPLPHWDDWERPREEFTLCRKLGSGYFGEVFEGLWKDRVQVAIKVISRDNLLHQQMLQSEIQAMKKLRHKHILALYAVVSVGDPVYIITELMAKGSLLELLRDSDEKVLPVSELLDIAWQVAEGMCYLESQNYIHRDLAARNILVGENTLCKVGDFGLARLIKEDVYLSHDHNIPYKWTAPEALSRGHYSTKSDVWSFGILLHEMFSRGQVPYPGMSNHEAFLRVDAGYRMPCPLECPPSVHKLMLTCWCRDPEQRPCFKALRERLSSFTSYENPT

[24] = molecular target: Tyrosine-protein kinase ABL1 (Homo sapiens) (UniProt P00519); test: Inhibition of human ABL1 expressed in mammalian expression system assessed as residual activity at 1 uM by Kinomescan method relative to control
[25] = molecular target: Tyrosine-protein kinase Fer (Homo sapiens) (UniProt P16591); test: Inhibition of wild-type human partial length FER (S542 to T822 residues) expressed in bacterial expression system assessed as residual activity at 1 uM by Kinomescan method relative to control
[26] = molecular target: MAP kinase-activated protein kinase 2 (Homo sapiens) (UniProt P49137); test: Inhibition of wild-type human partial length MAPKAPK2 (V48 to D345 residues) expressed in bacterial expression system assessed as residual activity at 1 uM by Kinomescan method relative to control
Chain of MAP kinase-activated protein kinase 2 (Homo sapiens) (P49137 whole entry, looked up, the tested form may be a part): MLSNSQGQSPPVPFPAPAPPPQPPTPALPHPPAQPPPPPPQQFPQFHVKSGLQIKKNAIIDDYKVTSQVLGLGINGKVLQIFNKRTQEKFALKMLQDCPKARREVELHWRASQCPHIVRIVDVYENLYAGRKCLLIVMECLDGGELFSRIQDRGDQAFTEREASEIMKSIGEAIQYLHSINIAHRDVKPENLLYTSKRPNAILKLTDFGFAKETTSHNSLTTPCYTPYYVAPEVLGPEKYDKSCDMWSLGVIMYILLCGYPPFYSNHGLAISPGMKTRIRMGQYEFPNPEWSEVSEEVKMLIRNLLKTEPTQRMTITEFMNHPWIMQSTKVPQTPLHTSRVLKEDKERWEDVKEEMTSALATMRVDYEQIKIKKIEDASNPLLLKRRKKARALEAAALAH

[27] = molecular target: Glycogen synthase kinase-3 beta (Homo sapiens) (UniProt P49841); test: Inhibition of wild-type human full length GSK3B (M1 to T433 residues) expressed in mammalian expression system assessed as residual activity at 1 uM by Kinomescan method relative to control
Chain of Glycogen synthase kinase-3 beta (Homo sapiens) (P49841 whole entry, looked up, the tested form may be a part): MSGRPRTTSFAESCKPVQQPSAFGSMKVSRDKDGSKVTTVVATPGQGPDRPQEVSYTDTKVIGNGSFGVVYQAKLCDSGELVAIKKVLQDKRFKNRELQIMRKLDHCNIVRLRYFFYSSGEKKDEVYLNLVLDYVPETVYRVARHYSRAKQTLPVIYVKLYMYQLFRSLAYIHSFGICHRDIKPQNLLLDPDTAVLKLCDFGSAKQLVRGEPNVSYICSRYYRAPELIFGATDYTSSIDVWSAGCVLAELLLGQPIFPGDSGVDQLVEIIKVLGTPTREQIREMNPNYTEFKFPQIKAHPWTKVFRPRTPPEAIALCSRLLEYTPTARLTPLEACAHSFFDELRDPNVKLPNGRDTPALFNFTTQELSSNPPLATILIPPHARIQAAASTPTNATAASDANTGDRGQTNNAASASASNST

Chain of Protein-tyrosine kinase 2-beta (Homo sapiens) (Q14289 whole entry, looked up, the tested form may be a part): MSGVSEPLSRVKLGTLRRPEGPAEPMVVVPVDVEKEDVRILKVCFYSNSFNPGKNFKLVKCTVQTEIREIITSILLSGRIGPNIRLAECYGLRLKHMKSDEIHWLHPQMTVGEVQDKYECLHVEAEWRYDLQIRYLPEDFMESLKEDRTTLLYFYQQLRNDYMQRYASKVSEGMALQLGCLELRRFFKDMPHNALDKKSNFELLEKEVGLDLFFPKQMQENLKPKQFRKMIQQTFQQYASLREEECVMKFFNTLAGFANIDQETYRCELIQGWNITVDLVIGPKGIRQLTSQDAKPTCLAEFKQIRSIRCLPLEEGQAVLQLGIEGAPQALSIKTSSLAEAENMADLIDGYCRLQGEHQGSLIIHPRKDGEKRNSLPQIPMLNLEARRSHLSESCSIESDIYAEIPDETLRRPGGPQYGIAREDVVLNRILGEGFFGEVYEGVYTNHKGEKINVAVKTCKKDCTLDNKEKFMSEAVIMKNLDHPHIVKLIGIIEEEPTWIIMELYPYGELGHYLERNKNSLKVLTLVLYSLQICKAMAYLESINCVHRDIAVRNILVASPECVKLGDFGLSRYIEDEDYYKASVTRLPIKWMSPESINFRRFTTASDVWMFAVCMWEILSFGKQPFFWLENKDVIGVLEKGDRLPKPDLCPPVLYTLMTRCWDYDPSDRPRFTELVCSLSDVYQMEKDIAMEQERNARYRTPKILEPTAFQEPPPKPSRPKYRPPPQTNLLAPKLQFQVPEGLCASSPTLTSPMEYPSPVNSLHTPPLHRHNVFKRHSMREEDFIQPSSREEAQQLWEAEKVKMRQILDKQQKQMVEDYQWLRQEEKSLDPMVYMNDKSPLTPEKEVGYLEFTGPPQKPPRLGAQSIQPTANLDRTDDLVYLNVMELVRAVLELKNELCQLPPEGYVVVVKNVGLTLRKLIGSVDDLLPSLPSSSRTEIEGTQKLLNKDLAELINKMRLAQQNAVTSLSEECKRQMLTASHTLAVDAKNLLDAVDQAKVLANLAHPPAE

CCOc1nc(Nc2ccc(C(=O)N3CCOCC3)cc2OC)nc2[nH]ccc12
Activity [1]: 36.1%
Activity [2]: 94.4%
Activity [3]: 90.6%
Activity [4]: 101%
Activity [5]: 96.6%
Activity [6]: 96.5%
Activity [7]: 100%
Activity [8]: 95.4%
Activity [9]: 107%
Activity [10]: 107%
Activity [11]: 97.5%
Activity [12]: 16.8%
Activity [13]: 72.2%
Activity [14]: 100%
Activity [15]: 134%
Activity [16]: 102%
Activity [17]: 27.9%
Activity [18]: 96.4%
Activity [19]: 89.5%
Activity [20]: 97%
Activity [21]: 98.4%
Activity [22]: 98.9%
Activity [23]: 45.6%
Activity [24]: 105%
Activity [25]: 36.5%
Activity [26]: 91.6%
Activity [27]: 95.9%

Source: ChEMBL document CHEMBL4715821, “Discovery of 4-ethoxy-7H-pyrrolo[2,3-d]pyrimidin-2-amines as potent, selective and orally bioavailable LRRK2 inhibitors” (Bioorg Med Chem Lett, 2018)
